Inhibition data for 19 molecules are collected here from US20230072683A1, “PYRIDO-PYRIMIDIN DERIVATIVES AND PHARMACEUTICAL COMPOSITION, FOR USE IN PREVENTING OR TREATING PI3 KINASE RELATED DISEASES, COMPRISING SAME AS ACTIVE INGREDIENT” (BORYUNG PHARMACEUTICAL CO., LTD, priority 2019, published 2023).

For one assay, the target named is DNA-PK(h) (Homo sapiens, UniProt P78527). The assay is described as follows: Evaluation of inhibitory activity against DNA-PK (HTRF kinase assay, GST-cMyc-p53 substrate). The settings on record: for inhibition at 0.01 µM: compound concentration 0.01 μM, read-out: EXP_VALUE(% Inhibition) DNA-PK(h) 0.01 μM; for inhibition at 0.1 µM: compound concentration 0.1 μM, read-out: EXP_VALUE(% Inhibition) DNA-PK(h) 0.1 μM. In kind it is biochemical. The method, boiled down: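 Human DNA-PK with 50 μM GST-cMyc-p53 substrate; reaction started with Mg/ATP, run 30 min at room temperature, stopped with EDTA. Phospho-Ser15 p53 detected by HTRF (Eu anti-phospho-Ser15, d2 anti-GST), signal = 10000×(Em 665/Em 620).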
A general note: In TR-FRET formats the signal depends on donor and acceptor labels being close together.

In assay [1] the target is PI3K-δ (PI3K(p1108/p857) (h)) (Homo sapiens, UniProt O00329). The assay can be described thus: Evaluation of inhibitory activity against PI3K-δ (HTRF kinase assay). The format is biochemical. The settings on record: for inhibition at 0.01 µM: compound concentration 0.01 μM, read-out: EXP_VALUE(% Inhibition) PI3K-δ 0.01 μM; for inhibition at 0.1 µM: compound concentration 0.1 μM, read-out: EXP_VALUE(% Inhibition) PI3K-δ 0.1 μM. Put shortly:
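HTRF read-out (665/620 nm ratio ×10000) used Eu-labelled anti-GST, GST-tagged GRP1 PH domain and streptavidin-allophycocyanin after EDTA/PIP3 stop.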

As usually defined, the inhibition is the relative decrease from the control value, in per cent.

PI3K-δ (PI3K(p1108/p857) (h)), sequence (O00329 whole entry, the tested form may be a part): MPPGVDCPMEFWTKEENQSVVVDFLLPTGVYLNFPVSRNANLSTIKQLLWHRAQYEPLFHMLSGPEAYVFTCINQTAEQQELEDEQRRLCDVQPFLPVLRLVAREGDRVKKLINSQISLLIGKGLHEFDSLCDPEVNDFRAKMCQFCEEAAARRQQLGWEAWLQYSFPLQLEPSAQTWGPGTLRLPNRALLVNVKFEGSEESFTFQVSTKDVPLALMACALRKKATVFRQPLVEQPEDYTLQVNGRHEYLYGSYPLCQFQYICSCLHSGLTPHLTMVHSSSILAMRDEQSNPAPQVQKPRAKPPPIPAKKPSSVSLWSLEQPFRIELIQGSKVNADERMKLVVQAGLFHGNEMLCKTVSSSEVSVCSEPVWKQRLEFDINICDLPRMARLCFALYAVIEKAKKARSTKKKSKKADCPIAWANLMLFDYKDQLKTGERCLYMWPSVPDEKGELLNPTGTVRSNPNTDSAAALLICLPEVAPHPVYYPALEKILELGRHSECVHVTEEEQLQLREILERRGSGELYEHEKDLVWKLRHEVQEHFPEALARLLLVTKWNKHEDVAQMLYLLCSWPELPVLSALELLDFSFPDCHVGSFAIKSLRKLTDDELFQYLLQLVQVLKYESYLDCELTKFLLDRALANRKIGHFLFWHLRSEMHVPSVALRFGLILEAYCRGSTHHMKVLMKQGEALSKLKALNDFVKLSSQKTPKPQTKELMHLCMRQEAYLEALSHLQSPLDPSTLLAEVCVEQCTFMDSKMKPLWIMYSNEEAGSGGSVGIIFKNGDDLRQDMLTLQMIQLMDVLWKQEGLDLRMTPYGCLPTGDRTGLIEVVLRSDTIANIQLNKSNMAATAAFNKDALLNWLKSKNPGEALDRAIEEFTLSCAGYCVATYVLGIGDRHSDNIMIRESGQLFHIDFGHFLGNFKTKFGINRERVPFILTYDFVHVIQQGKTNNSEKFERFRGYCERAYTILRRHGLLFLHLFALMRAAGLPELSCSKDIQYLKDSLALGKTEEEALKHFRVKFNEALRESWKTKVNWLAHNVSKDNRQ
PI3K-δ (PI3K(p1108/p857) (h)), sequence (P27986 whole entry partner, the tested form may be a part): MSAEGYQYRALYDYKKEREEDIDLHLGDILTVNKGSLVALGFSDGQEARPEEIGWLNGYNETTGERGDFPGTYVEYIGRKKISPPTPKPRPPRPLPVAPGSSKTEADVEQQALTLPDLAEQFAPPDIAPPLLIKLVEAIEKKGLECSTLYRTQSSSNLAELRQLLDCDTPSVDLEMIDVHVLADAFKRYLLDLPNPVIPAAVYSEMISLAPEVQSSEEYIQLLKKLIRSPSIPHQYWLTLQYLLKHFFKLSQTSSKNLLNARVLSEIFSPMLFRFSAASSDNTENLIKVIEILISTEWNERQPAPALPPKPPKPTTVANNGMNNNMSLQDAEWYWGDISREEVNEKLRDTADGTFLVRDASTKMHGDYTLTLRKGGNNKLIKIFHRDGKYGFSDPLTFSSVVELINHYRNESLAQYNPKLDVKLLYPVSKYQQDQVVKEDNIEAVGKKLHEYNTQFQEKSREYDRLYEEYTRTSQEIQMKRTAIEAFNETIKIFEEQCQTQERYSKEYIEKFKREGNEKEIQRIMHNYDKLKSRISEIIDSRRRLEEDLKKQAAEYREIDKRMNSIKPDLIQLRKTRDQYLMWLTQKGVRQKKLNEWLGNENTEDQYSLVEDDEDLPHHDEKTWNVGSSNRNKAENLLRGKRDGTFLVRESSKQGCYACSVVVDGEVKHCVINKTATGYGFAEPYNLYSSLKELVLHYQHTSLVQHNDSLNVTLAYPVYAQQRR

`C[C@H](Nc1ncnc2[nH]ccc(=O)c12)c1c(Cl)c2cccc(N3CCN(c4ccccn4)CC3)c2c(=O)n1-c1ccccc1` [Example 333, (S)-4-((1-(4-chloro-1-oxo-2-phenyl-8-(4-(pyridin-2-yl)piperazin-1-yl)-1,2-dihydroisoquinolin-3-yl)ethyl)amino)pyrido[2,3-d]pyrimidin-5(8H)-one]: at DNA-PK(h), the inhibition at 0.01 µM came to 17% and the inhibition at 0.1 µM was determined as 62%. For the same molecule, in assay [1], the inhibition at 0.01 µM came to 46% and the inhibition at 0.1 µM is 79%.

For the molecule `C[C@H](Nc1ncnc2[nH]ccc(=O)c12)c1c(Cl)c2cccc(N(C)Cc3ccc4ccccc4c3)c2c(=O)n1-c1ccccc1` [Example 334, (S)-4-((1-(4-chloro-8-(methyl(naphthalen-2-ylmethyl)amino)-1-oxo-2-phenyl-1,2-dihydroisoquinolin-3-yl)ethyl)amino)pyrido[2,3-d]pyrimidin-5(8H)-one], at DNA-PK(h), the inhibition at 0.01 µM was found to be 10% and the inhibition at 0.1 µM was 27%. Moreover, in assay [1], the inhibition at 0.01 µM came to 9% and the inhibition at 0.1 µM is 49%.

With `C[C@H](Nc1ncnc2[nH]ccc(=O)c12)c1c(Cl)c2cccc(NCCc3ccc(Cl)cc3)c2c(=O)n1-c1ccccc1` [Example 335, (S)-4-((1-(4-chloro-8-((4-chlorophenethyl)amino)-1-oxo-2-phenyl-1,2-dihydroisoquinolin-3-yl)ethyl)amino)pyrido[2,3-d]pyrimidin-5(8H)-one], at DNA-PK(h), the inhibition at 0.01 µM came to 13% and the inhibition at 0.1 µM is 52%. In assay [1], the inhibition at 0.01 µM was found to be 31% and the inhibition at 0.1 µM amounted to 95%.

For `C[C@H](Nc1ncnc2[nH]ccc(=O)c12)c1c(Cl)c2cccc(N3CCC(c4ccccc4)CC3)c2c(=O)n1-c1ccccc1` [Example 336, (S)-4-((1-(4-chloro-1-oxo-2-phenyl-8-(4-phenylpiperidin-1-yl)-1,2-dihydroisoquinolin-3-yl)ethyl)amino)pyrido[2,3-d]pyrimidin-5(8H)-one], on DNA-PK(h), the inhibition at 0.01 µM amounted to 7% and the inhibition at 0.1 µM amounted to 14%. In addition, in assay [1], the inhibition at 0.01 µM amounted to 6% and the inhibition at 0.1 µM worked out at 19%.

In the case of `C[C@H](Nc1ncnc2[nH]ccc(=O)c12)c1c(Cl)c2cccc(N3CCC[C@H]3C(N)=O)c2c(=O)n1-c1ccccc1` [Example 337, (S)-1-(4-chloro-1-oxo-3-((S)-1-((5-oxo-5,8-dihydropyrido[2,3-d]pyrimidin-4-yl)amino)ethyl)-2-phenyl-1,2-dihydroisoquinolin-8-yl) pyrrolidine-2-carboxamide], at DNA-PK(h), the inhibition at 0.01 µM was found to be 13% and the inhibition at 0.1 µM stood at 63%. Also, in assay [1], the inhibition at 0.01 µM was 27% and the inhibition at 0.1 µM is 70%.

For the molecule `C[C@H](Nc1ncnc2[nH]ccc(=O)c12)c1c(Cl)c2cccc(N3CCC[C@H]3CN3CCCC3)c2c(=O)n1-c1ccccc1` [Example 338, 4-(((S)-1-(4-chloro-1-oxo-2-phenyl-8-((S)-2-(pyrrolidin-1-ylmethyl)pyrrolidin-1-yl)-1,2-dihydroisoquinolin-3-yl)ethyl)amino)pyrido[2,3-d]pyrimidin-5(8H)-one], at DNA-PK(h), the inhibition at 0.01 µM was -2% and the inhibition at 0.1 µM worked out at 35%. Also, in assay [1], the inhibition at 0.01 µM is 3% and the inhibition at 0.1 µM was 19%.

With `C[C@H](Nc1ncnc2[nH]ccc(=O)c12)c1c(Cl)c2cccc(N3CCCC3O)c2c(=O)n1-c1ccccc1` (stereo partly drawn) [Example 339, 4-(((1S)-1-(4-chloro-8-(2-hydroxypyrrolidin-1-yl)-1-oxo-2-phenyl-1,2-dihydroisoquinolin-3-yl)ethyl)amino)pyrido[2,3-d]pyrimidin-5(8H)-one], at DNA-PK(h), the inhibition at 0.01 µM is 8% and the inhibition at 0.1 µM turned out to be 52%. In assay [1], the inhibition at 0.01 µM came to 69% and the inhibition at 0.1 µM was 20%.

For `C[C@H](Nc1ncnc2[nH]ccc(=O)c12)c1c(Cl)c2cccc(N3Cc4ccccc4C3)c2c(=O)n1-c1ccccc1` [Example 340, (S)-4-((1-(4-chloro-8-(isoindolin-2-yl)-1-oxo-2-phenyl-1,2-dihydroisoquinolin-3-yl)ethyl)amino)pyrido[2,3-d]pyrimidin-5(8H)-one], on DNA-PK(h), the inhibition at 0.01 µM amounted to 21% and the inhibition at 0.1 µM stood at 67%. Further, in assay [1], the inhibition at 0.01 µM was 43% and the inhibition at 0.1 µM is 91%.

Consider `C[C@H](Nc1ncnc2[nH]ccc(=O)c12)c1c(Cl)c2cccc(N3CCc4ccccc43)c2c(=O)n1-c1ccccc1` [Example 341, (S)-4-((1-(4-chloro-8-(indolin-1-yl)-1-oxo-2-phenyl-1,2-dihydroisoquinolin-3-yl)ethyl)amino)pyrido[2,3-d]pyrimidin-5(8H)-one], for which, at DNA-PK(h), the inhibition at 0.01 µM stood at 13% and the inhibition at 0.1 µM was 56%. In assay [1], the inhibition at 0.01 µM came out at 62% and the inhibition at 0.1 µM amounted to 91%.

Consider `C[C@H](Nc1ncnc2[nH]ccc(=O)c12)c1c(Cl)c2cccc(N3CC4CCCC4C3)c2c(=O)n1-c1ccccc1` (stereo partly drawn) [Example 342, 4-(((1S)-1-(4-chloro-8-(hexahydrocyclopenta[c]pyrrol-2 (1H)-yl)-1-oxo-2-phenyl-1,2-dihydroisoquinolin-3-yl)ethyl)amino)pyrido[2,3-d]pyrimidin-5(8H)-one], for which, on DNA-PK(h), the inhibition at 0.01 µM was determined as 9% and the inhibition at 0.1 µM was found to be 58%. Also, in assay [1], the inhibition at 0.01 µM turned out to be 15% and the inhibition at 0.1 µM turned out to be 45%.

Regarding `C[C@H](Nc1ncnc2[nH]ccc(=O)c12)c1c(Cl)c2cccc(Nc3ccccc3)c2c(=O)n1-c1ccccc1` [Example 343, (S)-4-((1-(4-chloro-1-oxo-2-phenyl-8-(phenylamino)-1,2-dihydroisoquinolin-3-yl)ethyl)amino)pyrido[2,3-d]pyrimidin-5(8H)-one], the inhibition at 0.01 µM was -1% on DNA-PK(h) and 8% in assay [1].

Take `C[C@H](Nc1ncnc2[nH]ccc(=O)c12)c1c(Cl)c2cccc(Nc3ccc(F)cc3)c2c(=O)n1-c1ccccc1` [Example 344, (S)-4-((1-(4-chloro-8-((4-fluorophenyl)amino)-1-oxo-2-phenyl-1,2-dihydroisoquinolin-3-yl)ethyl)amino)pyrido[2,3-d]pyrimidin-5(8H)-one]: the inhibition at 0.01 µM at DNA-PK(h) was -7%; in assay [1] it was 13%.

`COc1ccc(Nc2cccc3c(Cl)c([C@H](C)Nc4ncnc5[nH]ccc(=O)c45)n(-c4ccccc4)c(=O)c23)cc1` [Example 345, (S)-4-((1-(4-chloro-8-((4-methoxyphenyl)amino)-1-oxo-2-phenyl-1,2-dihydroisoquinolin-3-yl)ethyl)amino)pyrido[2,3-d]pyrimidin-5(8H)-one]: the results for the inhibition at 0.01 µM (on DNA-PK(h); in assay [1]) were 0% and 10%, respectively.

As for `C[C@H](Nc1ncnc2[nH]ccc(=O)c12)c1c(Cl)c2cccc(Nc3ccc(C(F)(F)F)cc3)c2c(=O)n1-c1ccccc1` [Example 346, (S)-4-((1-(4-chloro-1-oxo-2-phenyl-8-((4-(trifluoromethyl)phenyl)amino)-1,2-dihydroisoquinolin-3-yl)ethyl)amino)pyrido[2,3-d]pyrimidin-5(8H)-one], the inhibition at 0.01 µM on DNA-PK(h) is 1%; in assay [1], 9%.

As to `C[C@H](Nc1ncnc2[nH]ccc(=O)c12)c1c(Cl)c2cccc(Nc3cccnc3)c2c(=O)n1-c1ccccc1` [Example 347, (S)-4-((1-(4-chloro-1-oxo-2-phenyl-8-(pyridin-3-ylamino)-1,2-dihydroisoquinolin-3-yl)ethyl)amino)pyrido[2,3-d]pyrimidin-5(8H)-one], the inhibition at 0.01 µM on DNA-PK(h) is 28%; in assay [1] it was 11%.

For the molecule `C[C@H](Nc1ncnc2[nH]ccc(=O)c12)c1c(Cl)c2cccc(Nc3ccccn3)c2c(=O)n1-c1ccccc1` [Example 348, (S)-4-((1-(4-chloro-1-oxo-2-phenyl-8-(pyridin-2-ylamino)-1,2-dihydroisoquinolin-3-yl)ethyl)amino)pyrido[2,3-d]pyrimidin-5(8H)-one], the inhibition at 0.01 µM at DNA-PK(h) is -1%; in assay [1], 5%.

On to `C[C@H](Nc1ncnc2[nH]ccc(=O)c12)c1c(Cl)c2cccc(N(C)c3ccccn3)c2c(=O)n1-c1ccccc1` [Example 349, (S)-4-((1-(4-chloro-8-(methyl(pyridin-2-yl)amino)-1-oxo-2-phenyl-1,2-dihydroisoquinolin-3-yl)ethyl)amino)pyrido[2,3-d]pyrimidin-5(8H)-one], for which the inhibition at 0.01 µM at DNA-PK(h) was determined as 15%; in assay [1] it was 72%.

As to `C[C@H](Nc1ncnc2[nH]ccc(=O)c12)c1c(Cl)c2cccc(/C(N)=N/O)c2c(=O)n1-c1ccccc1` [Example 350, (S,Z)-4-chloro-N′-hydroxy-1-oxo-3-(1-((5-oxo-5,8-dihydropyrido[2,3-d]pyrimidin-4-yl)amino)ethyl)-2-phenyl-1,2-dihydroisoquinoline-8-carboximidamide], the inhibition at 0.01 µM at DNA-PK(h) came out at 15%; in assay [1], 109%. In addition, the inhibition at 0.1 µM on DNA-PK(h) was 55%; in assay [1], 117%.

Take `C[C@H](Nc1ncnc2[nH]ccc(=O)c12)c1c(Cl)c2cccc(-c3ncon3)c2c(=O)n1-c1ccccc1` [Example 351, (S)-4-((1-(4-chloro-8-(1,2,4-oxadiazol-3-yl)-1-oxo-2-phenyl-1,2-dihydroisoquinolin-3-yl)ethyl)amino)pyrido[2,3-d]pyrimidin-5(8H)-one]: at DNA-PK(h), the inhibition at 0.01 µM is 45% and the inhibition at 0.1 µM is 89%. Besides, in assay [1], the inhibition at 0.01 µM is 50% and the inhibition at 0.1 µM was 91%.
